Data reported in ChEMBL document CHEMBL1201862, “PubChem BioAssay data set” (2004).
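Protocol summary: plate cells (96-well), add compound at 5 concentrations, incubate 48 h, interpolate endpoints linearly. GI50 is the concentration that inhibits growth by half.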 Calls of active or inactive are those of the source. No stated cut-off is given here; in the data, active = GI50 up to about 1.1 µM and inactive = higher.

Key:
Assay in all cases: NCI tumour cell line growth inhibition, 48 h
MCF7 = tested on: MCF7
T47D = tested on: T47D
SNB-75 = tested on: SNB-75
UO-31 = tested on: UO-31
SW-620 = tested on: SW-620
HT-29 = tested on: HT-29
HCT-15 = tested on: HCT-15
CAKI-1 = tested on: CAKI-1
PC-3 = tested on: PC-3
DU-145 = tested on: DU-145
MDA-MB-435 = tested on: MDA-MB-435
SF-295 = tested on: SF-295
OVCAR-3 = tested on: OVCAR-3
786-0 = tested on: 786-0
SK-MEL-5 = tested on: SK-MEL-5
NCI/ADR-RES = tested on: NCI/ADR-RES
ACHN = tested on: ACHN
OVCAR-5 = tested on: OVCAR-5
A498 = tested on: A498

SMILES	GI50 (MCF7)	GI50 (T47D)	GI50 (SNB-75)	GI50 (UO-31)	GI50 (SW-620)	GI50 (HT-29)	GI50 (HCT-15)	GI50 (CAKI-1)	GI50 (PC-3)	GI50 (DU-145)	GI50 (MDA-MB-435)	GI50 (SF-295)	GI50 (OVCAR-3)	GI50 (786-0)	GI50 (SK-MEL-5)	GI50 (NCI/ADR-RES)	GI50 (ACHN)	GI50 (OVCAR-5)	GI50 (A498)
CCN(CC)CCN(/C(=N/c1ccccc1)N1CCCCC1)c1ccccc1	5.53 µM (inactive)	2.31 µM (inactive)	> 10 µM (inactive)	8.07 µM (inactive)	6.05 µM (inactive)	1.71 µM (inactive)	17.2 µM	27.8 µM (inactive)	2.72 µM (inactive)	20.2 µM (inactive)	3.91 µM (inactive)	3.62 µM (inactive)	2.88 µM (inactive)	26.1 µM (inactive)	5.08 µM (inactive)	–	–	–	–
C/C(=N\c1c2ccccc2nc2ccccc12)N(C)C	25.8 µM (inactive)	20.5 µM (inactive)	24.1 µM (inactive)	9.64 µM (inactive)	–	9.48 µM (inactive)	28.6 µM	24.3 µM (inactive)	14.6 µM (inactive)	29 µM (inactive)	22.5 µM (inactive)	14.8 µM (inactive)	14.4 µM (inactive)	24.2 µM (inactive)	14.6 µM (inactive)	16.3 µM (inactive)	19.8 µM (inactive)	20.5 µM (inactive)	–
CC(=O)c1cccc(Nc2c3ccccc3nc3occc23)c1	3.94 µM (inactive)	5.14 µM (inactive)	–	12.5 µM (inactive)	–	1.51 µM (inactive)	3.99 µM	2.48 µM (inactive)	13 µM (inactive)	11 µM (inactive)	1.07 µM (active)	3.83 µM (inactive)	1.82 µM (inactive)	4.08 µM (inactive)	8.75 µM (inactive)	2.51 µM (inactive)	9.73 µM (inactive)	37.2 µM (inactive)	31.4 µM (inactive)
C=C(Br)CNC(=O)Nc1ccc(Cl)c(Cl)c1	–	17.9 µM (inactive)	21.3 µM (inactive)	11.4 µM (inactive)	35.4 µM (inactive)	25.1 µM (inactive)	30.5 µM	20.4 µM (inactive)	11.2 µM (inactive)	23.6 µM (inactive)	20.3 µM (inactive)	26 µM (inactive)	13.4 µM (inactive)	16 µM (inactive)	13.8 µM (inactive)	16.6 µM (inactive)	17.5 µM (inactive)	33.1 µM (inactive)	9.12 µM (inactive)
CC(=O)OCC1OC(OC(C)=O)C(Nc2ncc(-c3ccc(C)cc3)s2)C(OC(C)=O)C1OC(C)=O (stereo not drawn)	20.3 µM (inactive)	15.2 µM (inactive)	15.5 µM (inactive)	14.7 µM (inactive)	13.7 µM (inactive)	21.2 µM (inactive)	22.5 µM	16.9 µM (inactive)	15.9 µM (inactive)	31.3 µM (inactive)	15.8 µM (inactive)	22.9 µM (inactive)	19.3 µM (inactive)	16.6 µM (inactive)	15.8 µM (inactive)	30.6 µM (inactive)	14.6 µM (inactive)	43.1 µM (inactive)	–
CC1(C)CC2(C)CC1CC2NC(=O)CCN1CCOCC1 (stereo not drawn)	> 100 µM (inactive)	> 100 µM (inactive)	> 100 µM (inactive)	> 100 µM (inactive)	> 100 µM (inactive)	> 100 µM (inactive)	–	> 100 µM (inactive)	> 100 µM (inactive)	> 100 µM (inactive)	> 100 µM (inactive)	> 100 µM (inactive)	> 100 µM (inactive)	> 100 µM (inactive)	> 100 µM (inactive)	–	> 100 µM (inactive)	> 100 µM (inactive)	> 100 µM (inactive)
CCOC(=O)c1ccc(/N=c2\oc3ccc(OC)cc3cc2-c2nc3ccccc3[nH]2)cc1	36.5 µM (inactive)	> 100 µM (inactive)	14.1 µM (inactive)	> 100 µM (inactive)	8.13 µM (inactive)	> 100 µM (inactive)	> 100 µM	> 100 µM (inactive)	> 100 µM (inactive)	> 100 µM (inactive)	30.5 µM (inactive)	62.8 µM (inactive)	> 100 µM (inactive)	> 100 µM (inactive)	5.66 µM (inactive)	> 100 µM (inactive)	> 100 µM (inactive)	54.3 µM (inactive)	–
O=C(/C=C/c1ccc(F)c(F)c1)OCCc1ccccc1	81.8 µM (inactive)	72.4 µM (inactive)	84.5 µM (inactive)	90.4 µM (inactive)	> 100 µM (inactive)	34.5 µM (inactive)	58.5 µM	67.1 µM (inactive)	> 100 µM (inactive)	> 100 µM (inactive)	> 100 µM (inactive)	> 100 µM (inactive)	> 100 µM (inactive)	> 100 µM (inactive)	38.5 µM (inactive)	> 100 µM (inactive)	> 100 µM (inactive)	> 100 µM (inactive)	–
